Source: patent publication US20260262643A1, “HERBICIDAL BENZOXAZINES” (FMC CORPORATION, priority 2022, published 2026)

Tests used:
[1] = test system: wheat; assay: Test C preemergence; assay type: in vivo, Triticum aestivum; conditions: for Plant response rating, Wheat: Preemergence; for Wheat plant response rating: preemergence
Summary of the method: (§1)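 Greenhouse herbicide screen, 10-day duration. Test chemicals in solvent/surfactant blend were sprayed onto soil at sowing (pre) or onto 2–10 cm seedlings at one to two leaves (post); injury scored visually against controls, 0 no effect to 100 complete control.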

[2] = test system: green foxtail; assay: Test C postemergence; assay type: in vivo, Setaria viridis; conditions: 10 days
Summary of the method: as §1

[3] = test system: corn; assay: Test C postemergence; assay type: in vivo, Zea mays; conditions: 10 days
Summary of the method: as §1

[4] = test system: horseweed; assay: Test C postemergence; assay type: in vivo, Erigeron canadensis; conditions: 10 days
Summary of the method: as §1

[5] = test system: oat, wild; assay: Test C preemergence; assay type: in vivo, Avena fatua; conditions: for Plant response rating, Oat, Wild: Preemergence; for Oat, Wild plant response rating: preemergence
Summary of the method: as §1

[6] = test system: green foxtail; assay: Test C preemergence; assay type: in vivo, Setaria viridis; conditions: for Plant response rating, Foxtail, Green: Preemergence; for Foxtail, Green plant response rating: preemergence
Summary of the method: as §1

[7] = test system: corn; assay: Test C preemergence; assay type: in vivo, Zea mays; conditions: for Plant response rating, Corn: Preemergence; for Corn plant response rating: preemergence
Summary of the method: as §1

[8] = test system: ducksalad; assay: Test D flooded paddy test; assay type: in vivo, Heteranthera limosa; conditions: 250 g ai/ha, applied to paddy water, visual rating after 13 to 14 days, scale 0 to 100 (0 no effect, 100 complete control)
Summary of the method: (§2)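 Plants grown to the 2-leaf stage; pots flooded to 3 cm above soil at treatment and held at that depth throughout. Test compounds applied directly to the paddy water. After 13 to 14 days in a greenhouse, response was rated visually versus controls on a 0 (no effect) to 100 (complete control) scale.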

[9] = test system: barnyardgrass; assay: Test C postemergence; assay type: in vivo, Echinochloa crusgalli; conditions: 10 days
Summary of the method: as §1

[10] = test system: oat, wild; assay: Test C postemergence; assay type: in vivo, Avena fatua; conditions: 10 days
Summary of the method: as §1

[11] = test system: wheat; assay: Test C postemergence; assay type: in vivo, Triticum aestivum; conditions: 10 days
Summary of the method: as §1

[12] = test system: blackgrass; assay: Test C postemergence; assay type: in vivo, Alopecurus myosuroides; conditions: 10 days
Summary of the method: as §1

[13] = test system: soybean; assay: Test C postemergence; assay type: in vivo, Glycine max; conditions: 10 days
Summary of the method: as §1

[14] = test system: ragweed; assay: Test C preemergence; assay type: in vivo, Ambrosia artemisiifolia; conditions: for Plant response rating, Ragweed: Preemergence; for Ragweed plant response rating: preemergence
Summary of the method: as §1

[15] = test system: soybean; assay: Test C preemergence; assay type: in vivo, Glycine max; conditions: for Plant response rating, Soybean: Preemergence; for Soybean plant response rating: preemergence
Summary of the method: as §1

[16] = test system: ragweed; assay: Test C postemergence; assay type: in vivo, Ambrosia artemisiifolia; conditions: 10 days
Summary of the method: as §1

[17] = test system: barnyardgrass; assay: Test C preemergence; assay type: in vivo, Echinochloa crusgalli; conditions: for Plant response rating, Barnyardgrass: Preemergence; for Barnyardgrass plant response rating: preemergence
Summary of the method: as §1

[18] = test system: kochia; assay: Test C preemergence; assay type: in vivo, Bassia scoparia; conditions: for Plant response rating, Kochia: Preemergence; for Kochia plant response rating: preemergence
Summary of the method: as §1

[19] = test system: galium; assay: Test C postemergence; assay type: in vivo, Galium aparine; conditions: 10 days
Summary of the method: as §1

[20] = test system: rice; assay: Test D flooded paddy test; assay type: in vivo, Oryza sativa; conditions: 250 g ai/ha, applied to paddy water, visual rating after 13 to 14 days, scale 0 to 100 (0 no effect, 100 complete control)
Summary of the method: as §2

[21] = test system: barnyardgrass; assay: Test D flooded paddy test; assay type: in vivo, Echinochloa crus-galli; conditions: 250 g ai/ha, applied to paddy water, visual rating after 13 to 14 days, scale 0 to 100 (0 no effect, 100 complete control)
Summary of the method: as §2

[22] = test system: ryegrass, Italian; assay: Test C preemergence; assay type: in vivo, Lolium multiflorum; conditions: for Plant response rating, Ryegrass, Italian: Preemergence; for Ryegrass, Italian plant response rating: preemergence
Summary of the method: as §1

[23] = test system: sedge, umbrella; assay: Test D flooded paddy test; assay type: in vivo, Cyperus difformis; conditions: 250 g ai/ha, applied to paddy water, visual rating after 13 to 14 days, scale 0 to 100 (0 no effect, 100 complete control)
Summary of the method: as §2

[24] = test system: ryegrass, Italian; assay: Test C postemergence; assay type: in vivo, Lolium multiflorum; conditions: 10 days
Summary of the method: as §1

[25] = test system: pigweed, palmer; assay: Test C preemergence; assay type: in vivo, Amaranthus palmeri; conditions: for Plant response rating, Pigweed, Palmer: Preemergence; for Pigweed, Palmer plant response rating: preemergence
Summary of the method: as §1

[26] = test system: pigweed, palmer; assay: Test C postemergence; assay type: in vivo, Amaranthus palmeri; conditions: 10 days
Summary of the method: as §1

[27] = test system: kochia; assay: Test C postemergence; assay type: in vivo, Bassia scoparia; conditions: 10 days
Summary of the method: as §1

[28] = test system: blackgrass; assay: Test C preemergence; assay type: in vivo, Alopecurus myosuroides; conditions: for Plant response rating, Blackgrass: Preemergence; for Blackgrass plant response rating: preemergence
Summary of the method: as §1

[29] = 500 g ai/ha, visual rating after 10 days, 0 to 100 scale (0 no effect, 100 complete control)
[30] = Test C, 125 g ai/ha, 0 to 100 scale (0 no effect, 100 complete control)
[31] = 125 g ai/ha, postemergence, 0 to 100 scale, 0 no effect, 100 complete control
[32] = Postemergence, 500 g ai/ha, visual 0 to 100 scale (0 no effect, 100 complete control)
[33] = 500 g ai/ha, 0 to 100 scale (0 no effect, 100 complete control)
[34] = 125 g ai/ha, 0 to 100 scale, 0 no effect, 100 complete control
[35] = 500 g ai/ha, postemergence, 0 to 100 scale (0 no effect, 100 complete control)
[36] = Postemergence, 125 g ai/ha, 0 to 100 scale (0 no effect, 100 complete control)

Cc1cccc2c1O[C@@H](C)CN2C(=O)c1cc(-n2cnc(C(C)C)n2)cc2occc12 [Compound 195]
30: Plant response rating, Barnyardgrass [9, 31] | Blackgrass plant response rating [28, 30]
10: Plant response rating, Oat, Wild [10, 31]
0: Wheat plant response rating [1, 30] | Plant response rating, Corn [7, 29] | Corn plant response rating [7, 30] | Plant response rating, Rice (Flood) [20]
90: Plant response rating, Foxtail, Green [2, 32] | Plant response rating, Horseweed [4, 31] | Plant response rating, Oat, Wild [10, 32] | Plant response rating, Blackgrass [12, 32] | Barnyardgrass plant response rating [17, 30] | Plant response rating, Galium [19, 31] | Plant response rating, Pigweed, Palmer [26, 31] | Plant response rating, Kochia [27, 31]
70: Plant response rating, Horseweed [4, 32] | Plant response rating, Ducksalad (Flood) [8] | Soybean plant response rating [15, 30] | Plant response rating, Ragweed [16, 31] | Plant response rating, Ragweed [16, 32] | Kochia plant response rating [18, 30]
100: Plant response rating, Foxtail, Green [6, 29] | Foxtail, Green plant response rating [6, 30] | Plant response rating, Soybean [13, 31] | Plant response rating, Soybean [13, 32] | Plant response rating, Ragweed [14, 29] | Plant response rating, Soybean [15, 29] | Plant response rating, Barnyardgrass [17, 29] | Plant response rating, Kochia [18, 29] | Plant response rating, Galium [19, 32] | Plant response rating, Ryegrass, Italian [22, 29] | Plant response rating, Pigweed, Palmer [25, 29] | Pigweed, Palmer plant response rating [25, 30] | Plant response rating, Pigweed, Palmer [26, 32] | Plant response rating, Kochia [27, 32]
60: Plant response rating, Barnyardgrass [9, 32] | Ragweed plant response rating [14, 30]
80: Plant response rating, Wheat [1, 29] | Plant response rating, Corn [3, 32] | Plant response rating, Oat, Wild [5, 29] | Ryegrass, Italian plant response rating [22, 30] | Plant response rating, Ryegrass, Italian [24, 32]
98: Plant response rating, Sedge, Umbrella (Flood) [23]
50: Plant response rating, Foxtail, Green [2, 31] | Plant response rating, Corn [3, 31] | Plant response rating, Wheat [11, 32] | Plant response rating, Blackgrass [12, 31]
40: Plant response rating, Ryegrass, Italian [24, 31] | Plant response rating, Blackgrass [28, 29]
20: Oat, Wild plant response rating [5, 30] | Plant response rating, Wheat [11, 31]
45: Plant response rating, Barnyardgrass (Flood) [21]

Cc1ncn(-c2ccc(F)c(C(=O)N3C[C@H](C)Oc4c(C)cccc43)c2)n1 [Compound 361]
95: Plant response rating, Sedge, Umbrella (Flood) [23]
20: Plant response rating, Corn [3, 36] | Plant response rating, Pigweed, Palmer [26, 36]
70: Wheat plant response rating [1, 33] | Plant response rating, Ducksalad (Flood) [8] | Plant response rating, Barnyardgrass [9, 36] | Ragweed plant response rating [14, 33] | Plant response rating, Kochia [27, 36]
10: Plant response rating, Horseweed [4, 35] | Corn plant response rating [7, 33]
50: Plant response rating, Wheat [1, 34] | Plant response rating, Corn [3, 35] | Oat, Wild plant response rating [5, 33] | Plant response rating, Ragweed [14, 34]
30: Plant response rating, Oat, Wild [10, 36] | Plant response rating, Barnyardgrass (Flood) [21]
40: Plant response rating, Wheat [11, 36] | Plant response rating, Blackgrass [28, 34]
80: Plant response rating, Oat, Wild [10, 35] | Plant response rating, Wheat [11, 35] | Plant response rating, Blackgrass [12, 36] | Plant response rating, Barnyardgrass [17, 34] | Plant response rating, Kochia [18, 34] | Ryegrass, Italian plant response rating [22, 33] | Plant response rating, Ryegrass, Italian [22, 34] | Plant response rating, Ryegrass, Italian [24, 36] | Plant response rating, Kochia [27, 35]
90: Plant response rating, Foxtail, Green [2, 35] | Plant response rating, Foxtail, Green [2, 36] | Plant response rating, Barnyardgrass [9, 35] | Plant response rating, Blackgrass [12, 35] | Barnyardgrass plant response rating [17, 33] | Kochia plant response rating [18, 33] | Plant response rating, Ryegrass, Italian [24, 35] | Plant response rating, Pigweed, Palmer [25, 34]
15: Plant response rating, Rice (Flood) [20]
100: Foxtail, Green plant response rating [6, 33] | Plant response rating, Foxtail, Green [6, 34] | Plant response rating, Soybean [13, 35] | Plant response rating, Soybean [13, 36] | Soybean plant response rating [15, 33] | Plant response rating, Soybean [15, 34] | Plant response rating, Galium [19, 35] | Plant response rating, Galium [19, 36] | Pigweed, Palmer plant response rating [25, 33]
0: Plant response rating, Horseweed [4, 36] | Plant response rating, Oat, Wild [5, 34] | Plant response rating, Corn [7, 34]
60: Plant response rating, Ragweed [16, 35] | Plant response rating, Ragweed [16, 36] | Plant response rating, Pigweed, Palmer [26, 35] | Blackgrass plant response rating [28, 33]
